# Patent US7419780B2, “Methods and assays for screening protein targets” (The Trustees of Columbia University in the City of New York, priority 2000, dated 2008)
# Tested on: S. cerevisiae strain FY250
compound,measurement,value
"C[C@@H]1C[C@H]2[C@@H]3CCC4=CC(=O)C=C[C@]4(C)[C@@]3(F)[C@@H](O)C[C@]2(C)[C@@]1(O)C(=O)CO [DEX, Dexamethasone]",toxicity (impaired cell growth on plate),neither DEX nor GR are toxic
